Laboratory results published in publication PMC7481290, “Halogenation as a tool to tune antimicrobial activity of peptoids” (Scientific Reports, 2020).
≈ marks a conversion by molar mass, not a printed value. Non-standard residues stand in square brackets, D forms with d. Residues, ends and D or L forms follow the SMILES beside them. Gly(Nα-4-Cl-benzyl) = O=C(O)CNCc1ccc(Cl)cc1; N(4-Br-benzyl)Gly = O=C(O)CNCc1ccc(Br)cc1; Nspe(4-Br) = C[C@H](NCC(=O)O)c1ccc(Br)cc1; N(4-F-Bzl)Gly = O=C(O)CNCc1ccc(F)cc1; NBzl(4-I)Gly = O=C(O)CNCc1ccc(I)cc1; Nspe = C[C@H](NCC(=O)O)c1ccccc1; Nphe = O=C(O)CNCc1ccccc1; Nlys = NCCCCNCC(=O)O

What was measured:
[1] = tested on: Methicillin-resistant S. epidermidis ET-024; type: cell-based, Staphylococcus epidermidis; settings: Methicillin-resistant ET-024, 18 h
Method: (§1) Bacterial growth inhibition was determined by using broth microdilution according to the Clinical Laboratory Standards Institute[43]. The antibacterial activity of peptoids was tested against S. aureus ATCC 25923, ATCC29213, and methicillin resistant S. aureus USA 300, methicillin resistant S. epidermidis ATCC 51625, a biofilm producing methicillin resistant S. epidermidis ET-024[44], P. aeruginosa Pa01 (H103), and E. coli ATCC 25922. Bacteria, grown on agar plates for 18 h at 37 °C, were diluted to ∼1 × 10^8 CFU/mL in Mueller‐Hinton Broth II (MHB II). Twofold serial dilutions of peptoids in MHB II were inoculated with bacteria to achieve a final concentration of 5 × 10^5 CFU/mL in polypropylene 96 U‐well microtiter plates (Corning 3,897; ThermoFisher Scientific, Roskilde), followed by incubation at 37 °C in ambient air for 18 h. The MIC values were determined as the lowest concentration showing no visible bacterial growth. Experiments were performed twice (in technical triplicates) on 2 different days.

[2] = tested on: Methicillin-resistant S. epidermidis ATCC 51625; type: cell-based, Staphylococcus epidermidis; settings: ATCC 51625, 18 h
Method: as §1

E. coli ATCC 25922 = type: cell-based, Escherichia coli; settings: ATCC 25922, 18 h
Method: as §1

[3] = tested on: P. aeruginosa PA01 (H103); type: cell-based, Pseudomonas aeruginosa; settings: H103, 18 h
Method: as §1

S. aureus ATCC 25923 = type: cell-based, Staphylococcus aureus; settings: ATCC 25923, 18 h
Method: as §1

S. aureus ATCC 29213 = type: cell-based, Staphylococcus aureus; settings: ATCC 29213, 18 h
Method: as §1

[4] = tested on: Methicillin-resistant S. aureus USA 300; type: cell-based, Staphylococcus aureus; settings: USA 300, 18 h
Method: as §1

NCCCCNCC(=O)N(CC(=O)N(CCCCN)CC(=O)N(CC(=O)N(CCCCN)CC(=O)N(CC(N)=O)Cc1ccc(F)cc1)Cc1ccc(F)cc1)Cc1ccc(F)cc1 [Compound 2] (H-[Nlys][N(4-F-Bzl)Gly][Nlys][N(4-F-Bzl)Gly][Nlys][N(4-F-Bzl)Gly]-NH2)
Minimal inhibitory concentration MRSE^d [1]: 128 µg/mL (≈ 143 µM)
Minimal inhibitory concentration MRSE^e [2]: 512 µg/mL (≈ 571 µM)
Minimal inhibitory concentration EC^f (E. coli ATCC 25922): 512 µg/mL (≈ 571 µM)
Minimal inhibitory concentration PA^g [3]: > 512 µg/mL
Minimal inhibitory concentration SA^a (S. aureus ATCC 25923): > 512 µg/mL
Minimal inhibitory concentration SA^b (S. aureus ATCC 29213): > 512 µg/mL
Minimal inhibitory concentration MRSA^c [4]: 512 µg/mL (≈ 571 µM)

NCCCCNCC(=O)N(CC(=O)N(CCCCN)CC(=O)N(CC(=O)N(CCCCN)CC(=O)N(CC(N)=O)Cc1ccc(Cl)cc1)Cc1ccc(Cl)cc1)Cc1ccc(Cl)cc1 [Compound 3] (H-[Nlys][Gly(Nα-4-Cl-benzyl)][Nlys][Gly(Nα-4-Cl-benzyl)][Nlys][Gly(Nα-4-Cl-benzyl)]-NH2)
Minimal inhibitory concentration MRSE^d [1]: 16 µg/mL (≈ 16.9 µM)
Minimal inhibitory concentration MRSE^e [2]: 8 µg/mL (≈ 8.45 µM)
Minimal inhibitory concentration EC^f (E. coli ATCC 25922): 512 µg/mL (≈ 541 µM)
Minimal inhibitory concentration PA^g [3]: 512 µg/mL (≈ 541 µM)
Minimal inhibitory concentration SA^a (S. aureus ATCC 25923): 64 µg/mL (≈ 67.6 µM)
Minimal inhibitory concentration SA^b (S. aureus ATCC 29213): 64 µg/mL (≈ 67.6 µM)
Minimal inhibitory concentration MRSA^c [4]: 16 µg/mL (≈ 16.9 µM)

NCCCCNCC(=O)N(CC(=O)N(CCCCN)CC(=O)N(CC(=O)N(CCCCN)CC(=O)N(CC(N)=O)Cc1ccc(Br)cc1)Cc1ccc(Br)cc1)Cc1ccc(Br)cc1 [Compound 4] (H-[Nlys][N(4-Br-benzyl)Gly][Nlys][N(4-Br-benzyl)Gly][Nlys][N(4-Br-benzyl)Gly]-NH2)
Minimal inhibitory concentration MRSE^d [1]: 4 µg/mL (≈ 3.7 µM)
Minimal inhibitory concentration MRSE^e [2]: 4 µg/mL (≈ 3.7 µM)
Minimal inhibitory concentration EC^f (E. coli ATCC 25922): 64 µg/mL (≈ 59.3 µM)
Minimal inhibitory concentration PA^g [3]: > 512 µg/mL
Minimal inhibitory concentration SA^a (S. aureus ATCC 25923): 16 µg/mL (≈ 14.8 µM)
Minimal inhibitory concentration SA^b (S. aureus ATCC 29213): 16 µg/mL (≈ 14.8 µM)
Minimal inhibitory concentration MRSA^c [4]: 16 µg/mL (≈ 14.8 µM)

NCCCCNCC(=O)N(CC(=O)N(CCCCN)CC(=O)N(CC(=O)N(CCCCN)CC(=O)N(CC(N)=O)Cc1ccc(F)cc1)Cc1ccccc1)Cc1ccc(F)cc1 [Compound 6] (H-[Nlys][N(4-F-Bzl)Gly][Nlys][Nphe][Nlys][N(4-F-Bzl)Gly]-NH2)
Minimal inhibitory concentration MRSE^d [1]: 256 µg/mL (≈ 291 µM)
Minimal inhibitory concentration MRSE^e [2]: 512 µg/mL (≈ 582 µM)
Minimal inhibitory concentration EC^f (E. coli ATCC 25922): > 512 µg/mL
Minimal inhibitory concentration PA^g [3]: > 512 µg/mL
Minimal inhibitory concentration SA^a (S. aureus ATCC 25923): > 512 µg/mL
Minimal inhibitory concentration SA^b (S. aureus ATCC 29213): > 512 µg/mL
Minimal inhibitory concentration MRSA^c [4]: > 512 µg/mL

NCCCCNCC(=O)N(CC(=O)N(CCCCN)CC(=O)N(CC(=O)N(CCCCN)CC(=O)N(CC(N)=O)Cc1ccc(Cl)cc1)Cc1ccccc1)Cc1ccc(Cl)cc1 [Compound 7] (H-[Nlys][Gly(Nα-4-Cl-benzyl)][Nlys][Nphe][Nlys][Gly(Nα-4-Cl-benzyl)]-NH2)
Minimal inhibitory concentration MRSE^d [1]: 64 µg/mL (≈ 70.2 µM)
Minimal inhibitory concentration MRSE^e [2]: 32 µg/mL (≈ 35.1 µM)
Minimal inhibitory concentration EC^f (E. coli ATCC 25922): 256 µg/mL (≈ 281 µM)
Minimal inhibitory concentration PA^g [3]: 512 µg/mL (≈ 561 µM)
Minimal inhibitory concentration SA^a (S. aureus ATCC 25923): 256 µg/mL (≈ 281 µM)
Minimal inhibitory concentration SA^b (S. aureus ATCC 29213): 256 µg/mL (≈ 281 µM)
Minimal inhibitory concentration MRSA^c [4]: 128 µg/mL (≈ 140 µM)

NCCCCNCC(=O)N(CC(=O)N(CCCCN)CC(=O)N(CC(=O)N(CCCCN)CC(=O)N(CC(N)=O)Cc1ccc(Br)cc1)Cc1ccccc1)Cc1ccc(Br)cc1 [Compound 8] (H-[Nlys][N(4-Br-benzyl)Gly][Nlys][Nphe][Nlys][N(4-Br-benzyl)Gly]-NH2)
Minimal inhibitory concentration MRSE^d [1]: 32 µg/mL (≈ 32 µM)
Minimal inhibitory concentration MRSE^e [2]: 16 µg/mL (≈ 16 µM)
Minimal inhibitory concentration EC^f (E. coli ATCC 25922): 256 µg/mL (≈ 256 µM)
Minimal inhibitory concentration PA^g [3]: 256 µg/mL (≈ 256 µM)
Minimal inhibitory concentration SA^a (S. aureus ATCC 25923): 128 µg/mL (≈ 128 µM)
Minimal inhibitory concentration SA^b (S. aureus ATCC 29213): 64 µg/mL (≈ 63.9 µM)
Minimal inhibitory concentration MRSA^c [4]: 64 µg/mL (≈ 63.9 µM)

NCCCCNCC(=O)N(CC(=O)N(CCCCN)CC(=O)N(CC(=O)N(CCCCN)CC(=O)N(CC(N)=O)Cc1ccc(I)cc1)Cc1ccccc1)Cc1ccc(I)cc1 [Compound 9] (H-[Nlys][NBzl(4-I)Gly][Nlys][Nphe][Nlys][NBzl(4-I)Gly]-NH2)
Minimal inhibitory concentration MRSE^d [1]: 16 µg/mL (≈ 14.6 µM)
Minimal inhibitory concentration MRSE^e [2]: 4 µg/mL (≈ 3.65 µM)
Minimal inhibitory concentration EC^f (E. coli ATCC 25922): 256 µg/mL (≈ 234 µM)
Minimal inhibitory concentration PA^g [3]: 256 µg/mL (≈ 234 µM)
Minimal inhibitory concentration SA^a (S. aureus ATCC 25923): 64 µg/mL (≈ 58.5 µM)
Minimal inhibitory concentration SA^b (S. aureus ATCC 29213): 16 µg/mL (≈ 14.6 µM)
Minimal inhibitory concentration MRSA^c [4]: 16 µg/mL (≈ 14.6 µM)

NCCCCNCC(=O)N(CC(=O)N(CCCCN)CC(=O)N(CC(=O)N(CCCCN)CC(=O)N(CC(=O)N(CCCCN)CC(=O)N(CC(N)=O)Cc1ccc(F)cc1)Cc1ccc(F)cc1)Cc1ccc(F)cc1)Cc1ccc(F)cc1 [Compound 11] (H-[Nlys][N(4-F-Bzl)Gly][Nlys][N(4-F-Bzl)Gly][Nlys][N(4-F-Bzl)Gly][Nlys][N(4-F-Bzl)Gly]-NH2)
Minimal inhibitory concentration MRSE^d [1]: 64 µg/mL (≈ 53.8 µM)
Minimal inhibitory concentration MRSE^e [2]: 32 µg/mL (≈ 26.9 µM)
Minimal inhibitory concentration EC^f (E. coli ATCC 25922): 128 µg/mL (≈ 108 µM)
Minimal inhibitory concentration PA^g [3]: > 512 µg/mL
Minimal inhibitory concentration SA^a (S. aureus ATCC 25923): 256 µg/mL (≈ 215 µM)
Minimal inhibitory concentration SA^b (S. aureus ATCC 29213): 256 µg/mL (≈ 215 µM)
Minimal inhibitory concentration MRSA^c [4]: 256 µg/mL (≈ 215 µM)

NCCCCNCC(=O)N(CC(=O)N(CCCCN)CC(=O)N(CC(=O)N(CCCCN)CC(=O)N(CC(=O)N(CCCCN)CC(=O)N(CC(N)=O)Cc1ccc(Cl)cc1)Cc1ccc(Cl)cc1)Cc1ccc(Cl)cc1)Cc1ccc(Cl)cc1 [Compound 12] (H-[Nlys][Gly(Nα-4-Cl-benzyl)][Nlys][Gly(Nα-4-Cl-benzyl)][Nlys][Gly(Nα-4-Cl-benzyl)][Nlys][Gly(Nα-4-Cl-benzyl)]-NH2)
Minimal inhibitory concentration MRSE^d [1]: 2 µg/mL (≈ 1.59 µM)
Minimal inhibitory concentration MRSE^e [2]: 1 µg/mL (≈ 0.796 µM)
Minimal inhibitory concentration EC^f (E. coli ATCC 25922): 64 µg/mL (≈ 50.9 µM)
Minimal inhibitory concentration PA^g [3]: > 512 µg/mL
Minimal inhibitory concentration SA^a (S. aureus ATCC 25923): 4 µg/mL (≈ 3.18 µM)
Minimal inhibitory concentration SA^b (S. aureus ATCC 29213): 4 to 8 µg/mL
Minimal inhibitory concentration MRSA^c [4]: 2 µg/mL (≈ 1.59 µM)

NCCCCNCC(=O)N(CC(=O)N(CCCCN)CC(=O)N(CC(=O)N(CCCCN)CC(=O)N(CC(=O)N(CCCCN)CC(=O)N(CC(N)=O)Cc1ccc(Br)cc1)Cc1ccc(Br)cc1)Cc1ccc(Br)cc1)Cc1ccc(Br)cc1 [Compound 13] (H-[Nlys][N(4-Br-benzyl)Gly][Nlys][N(4-Br-benzyl)Gly][Nlys][N(4-Br-benzyl)Gly][Nlys][N(4-Br-benzyl)Gly]-NH2)
Minimal inhibitory concentration MRSE^d [1]: 2 µg/mL (≈ 1.39 µM)
Minimal inhibitory concentration MRSE^e [2]: 4 µg/mL (≈ 2.79 µM)
Minimal inhibitory concentration EC^f (E. coli ATCC 25922): 64 µg/mL (≈ 44.6 µM)
Minimal inhibitory concentration PA^g [3]: > 512 µg/mL
Minimal inhibitory concentration SA^a (S. aureus ATCC 25923): 4 µg/mL (≈ 2.79 µM)
Minimal inhibitory concentration SA^b (S. aureus ATCC 29213): 8 µg/mL (≈ 5.58 µM)
Minimal inhibitory concentration MRSA^c [4]: 2 µg/mL (≈ 1.39 µM)

C[C@@H](c1ccc(Br)cc1)N(CC(N)=O)C(=O)CN(C(=O)CN(CCCCN)C(=O)CN(C(=O)CN(C(=O)CNCCCCN)[C@@H](C)c1ccccc1)[C@@H](C)c1ccccc1)[C@@H](C)c1ccccc1 [Compound 49] (H-[Nlys][Nspe][Nspe][Nlys][Nspe][Nspe(4-Br)]-NH2)
MIC MRSE^c [1]: 16 µg/mL (≈ 16 µM)
MIC MRSE^d [2]: 8 µg/mL (≈ 8.02 µM)
MIC EC^e (E. coli ATCC 25922): > 64 µg/mL
MIC PA^f [3]: 64 µg/mL (≈ 64.2 µM)
MIC SA^a (S. aureus ATCC 25923): 64 µg/mL (≈ 64.2 µM)
MIC MRSA^b [4]: 32 µg/mL (≈ 32.1 µM)

C[C@@H](c1ccccc1)N(CC(N)=O)C(=O)CN(C(=O)CN(CCCCN)C(=O)CN(C(=O)CN(C(=O)CNCCCCN)[C@@H](C)c1ccccc1)[C@@H](C)c1ccccc1)[C@@H](C)c1ccccc1 [Pep1-6mer] (H-[Nlys][Nspe][Nspe][Nlys][Nspe][Nspe]-NH2)
MIC MRSE^c [1]: 64 µg/mL (≈ 69.7 µM)
MIC MRSE^d [2]: 64 µg/mL (≈ 69.7 µM)
MIC EC^e (E. coli ATCC 25922): 1,024 μg/mL
MIC PA^f [3]: 256 µg/mL (≈ 279 µM)
MIC SA^a (S. aureus ATCC 25923): 256 µg/mL (≈ 279 µM)
MIC MRSA^b [4]: 256 µg/mL (≈ 279 µM)
